In patent publication US9255100B2 (BAYER INTELLECTUAL PROPERTY GMBH, priority 2010, dated 2016):

Target: T1, N-terminally GST-tagged human full length recombinant Mps-1 kinase (Homo sapiens, UniProt P33981)
T1 construct: N-terminally GST-tagged human full length recombinant Mps-1 kinase; purchased Invitrogen, Karslruhe, Germany PV4071
T1 sequence (P33981 1-857): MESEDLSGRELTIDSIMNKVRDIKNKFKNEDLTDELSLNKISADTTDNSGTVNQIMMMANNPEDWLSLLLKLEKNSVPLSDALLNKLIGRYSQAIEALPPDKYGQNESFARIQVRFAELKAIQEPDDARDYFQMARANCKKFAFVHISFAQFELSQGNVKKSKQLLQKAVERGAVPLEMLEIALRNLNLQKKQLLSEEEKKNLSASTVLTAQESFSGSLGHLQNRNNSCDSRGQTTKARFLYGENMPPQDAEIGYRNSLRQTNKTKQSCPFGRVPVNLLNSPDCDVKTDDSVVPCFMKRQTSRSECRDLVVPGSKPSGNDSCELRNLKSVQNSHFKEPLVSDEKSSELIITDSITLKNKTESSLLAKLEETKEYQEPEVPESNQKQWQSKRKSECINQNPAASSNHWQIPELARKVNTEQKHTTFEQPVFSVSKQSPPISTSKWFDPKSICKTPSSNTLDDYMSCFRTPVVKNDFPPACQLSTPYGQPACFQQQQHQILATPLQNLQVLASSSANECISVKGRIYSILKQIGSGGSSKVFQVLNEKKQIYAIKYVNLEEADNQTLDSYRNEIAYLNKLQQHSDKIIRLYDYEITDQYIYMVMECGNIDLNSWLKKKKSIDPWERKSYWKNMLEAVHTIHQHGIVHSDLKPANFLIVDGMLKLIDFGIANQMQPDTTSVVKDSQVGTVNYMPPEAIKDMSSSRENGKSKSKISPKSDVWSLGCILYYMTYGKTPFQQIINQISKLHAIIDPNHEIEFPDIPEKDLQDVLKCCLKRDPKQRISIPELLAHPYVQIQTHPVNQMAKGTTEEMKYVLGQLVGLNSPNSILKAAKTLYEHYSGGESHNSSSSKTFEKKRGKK
Assay: Mps-1 kinase assay (TR-FRET)
Assay type: biochemical
Settings: Mps1 IC50 [nM], 10 μM ATP, 1 μM peptide substrate, 60 min at 22° C.
Method in brief: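 GST-tagged full-length recombinant Mps-1 at about 1 nM final, adjusted per lot for linear range, phosphorylated a biotinylated peptide. Product bound Eu-anti-phospho(Ser/Thr) antibody over 1 h at 22° C and was read by TR-FRET to streptavidin-XLent. Compounds scored for kinase inhibition.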

Compound	IC50
Cc1cc(-c2cnc3c(NCCC(F)(F)F)cc(Sc4cccc(F)c4)nn23)ccc1C(=O)NC1CC1 [Example 209, N-cyclopropyl-4-{6-[(3-fluorophenyl)sulfanyl]-8-[(3,3,3-trifluoropropyl)amino]imidazo[1,2-b]pyridazin-3-yl}-2-methylbenzamide]	0.6 nM
Cc1cc(-c2cnc3c(NCCC(F)(F)F)cc(Nc4ccc(CCO)cc4)nn23)ccc1C(=O)NC1CC1 [Example 427, N-cyclopropyl-4-(6-{[4-(2-hydroxyethyl)phenyl]amino}-8-[(3,3,3-trifluoropropyl)amino]imidazo[1,2-b]pyridazin-3-yl)-2-methylbenzamide]	0.2 nM
Cc1cc(-c2cnc3c(NCCC(F)(F)F)cc(Oc4cccc(F)c4N)nn23)ccc1C(=O)NC1CC1 [Example 477, 4-{6-(2-amino-3-fluoro-phenoxy)-8-[(3,3,3-tri-fluoropropyl)amino]imidazo[1,2-b]pyridazin-3-yl}-N-cyclopropyl-2-methylbenzamide]	0.3 nM
COC(C)(C)CNc1cc(-c2ccncc2)nn2c(-c3ccc(C(=O)NC4CC4)c(C)c3)cnc12 [Example 17, N-cyclopropyl-4-{8-[(2-methoxy-2-methylpropyl)amino]-6-(pyridin-4-yl)imidazo[1,2-b]pyridazin-3-yl}-2-methylbenzamide]	3.2 nM
Cc1cc(-c2cnc3c(NCCC(F)(F)F)cc(Nc4ccc(F)c(O)c4)nn23)ccc1C(=O)NC1CC1 [Example 442, N-cyclopropyl-4-{6-[(4-fluoro-3-hydroxyphenyl)amino]-8-[(3,3,3-trifluoropropyl)amino]imidazo[1,2-b]pyridazin-3-yl}-2-methylbenzamide]	0.1 nM
Cc1cc(-c2cnc3c(NCC(C)(C)O)cc(Oc4cccc(F)c4F)nn23)ccc1C(=O)NC1CC1 [Example 92, N-cyclopropyl-4-{6-(2,3-difluorophenoxy)-8-[(2-hydroxy-2-methylpropyl)amino]imidazo[1,2-b]pyridazin-3-yl}-2-methylbenzamide]	0.2 nM
Cc1cc(-c2cnc3c(NCCC(N)=O)cc(Oc4cccc(F)c4)nn23)ccc1C(=O)NC1CC1 [Example 549, 4-{8-[(3-amino-3-oxopropyl)amino]-6-(3-fluorophenoxy)imidazo[1,2-b]pyridazin-3-yl}-N-cyclopropyl-2-methyl-benzamide]	0.2 nM
Cc1cc(-c2cnc3c(NCC(C)C)cc(-c4cncc(C#N)c4)nn23)ccc1C(=O)NC1CC1 [Example 213, 4-{6-(5-Cyanopyridin-3-yl)-8-(isobutylamino)imidazo[1,2-b]pyridazin-3-yl}-N-cyclopropyl-2-methylbenzamide]	< 1 nM
CNc1cc(Oc2ccc(OC)cc2F)nn2c(-c3ccc(C(=O)NC4CC4)c(C)c3)cnc12 [Example 534, N-cyclopropyl-4-[6-(2-fluoro-4-methoxy-phenoxy)-8-(methyl-amino)imidazo[1,2-b]pyridazin-3-yl]-2-methylbenzamide]	0.1 nM
CCNC(=O)c1ccc(-c2cnc3c(NCCC(F)(F)F)cc(Oc4ccc(O)cc4F)nn23)cc1C [Example 561, N-ethyl-4-{6-(2-fluoro-4-hydroxyphenoxy)-8-[(3,3,3-trifluoropropyl)amino]imidazo[1,2-b]pyridazin-3-yl}-2-methylbenzamide]	0.6 nM
COc1ccccc1Nc1cc(NCC(C)(C)O)c2ncc(-c3ccc(C(=O)NC4CC4)c(C)c3)n2n1 [Example 402, N-cyclopropyl-4-{8-[(2-hydroxy-2-methylpropyl)amino]-6-[(2-methoxyphenyl)amino]imidazo[1,2-b]pyridazin-3-yl}-2-methylbenzamide]	3.4 nM
Cc1cccc(Oc2cc(NCCC(F)(F)F)c3ncc(-c4ccc(C(=O)NC5CC5)c(C)c4)n3n2)c1 [Example 470, N-cyclopropyl-2-methyl-4-{6-(3-methylphenoxy)-8-[(3,3,3-trifluoro-propyl)amino]imidazo [1,2-b]pyridazin-3-yl} benzamide]	0.4 nM
Cc1ccc(F)c(Oc2cc(NCCC(F)(F)F)c3ncc(-c4ccc(C(=O)NC5CC5)c(C)c4)n3n2)c1 [Example 259, N-cyclopropyl-4-{6-(2-fluoro-5-methylphenoxy)-8-[(3,3,3-trifluoropropyl)amino]imidazo[1,2-b]pyridazin-3-yl}-2-methylbenzamide]	0.3 nM
Cc1ccc(F)c(Nc2cc(NCCC(F)(F)F)c3ncc(-c4ccc(C(=O)NC5CC5)c(C)c4)n3n2)c1 [Example 367, N-cyclopropyl-4-{6-[(2-fluoro-5-methylphenyl)amino]-8-[(3,3,3-trifluoropropyl)amino]imidazo[1,2-b]pyridazin-3-yl}-2-methylbenzamide]	0.1 nM
Cc1cc(-c2cnc3c(NC[C@H]4CC[S@@+]([O-])CC4)cc(Oc4cccnc4)nn23)ccc1C(=O)NC1CC1 [Example 296B, N-cyclopropyl-2-methyl-4-[8-({[(cis)-1-oxidotetrahydro-2H-thiopyran-4-yl]methyl}amino)-6-(pyridin-3-yloxy)imidazo[1,2-b]pyridazin-3-yl]benzamide]	0.5 nM
Cc1ccc(F)cc1Nc1cc(NCCC(F)(F)F)c2ncc(-c3ccc(C(=O)NC4CC4)c(C)c3)n2n1 [Example 375, N-cyclopropyl-4-{6-[(5-fluoro-2-methylphenyl)amino]-8-[(3,3,3-trifluoropropyl)amino]imidazo[1,2-b]pyridazin-3-yl}-2-methylbenzamide]	0.1 nM
Cc1cc(Nc2cc(NCCC(F)(F)F)c3ncc(-c4ccc(C(=O)NC5CC5)c(C)c4)n3n2)ccc1F [Example 428, N-cyclopropyl-4-{6-[(4-fluoro-3-methylphenyl)amino]-8-[(3,3,3-trifluoropropyl)amino]imidazo[1,2-b]pyridazin-3-yl}-2-methylbenzamide]	0.4 nM
CC(=O)Nc1ccncc1Oc1cc(NCCC(F)(F)F)c2ncc(-c3ccc(C(=O)NC4CC4)c(C)c3)n2n1 [Example 476, 4-(6-{[4-(acetylamino)pyridin-3-yl]oxy}-8-[(3,3,3-trifluoropropyl)amino]imidazo[1,2-b]pyridazin-3-yl)-N-cyclo-propyl-2-methyl-benzamide]	10.3 nM
Cc1cc(-c2cnc3c(NCCC(F)(F)F)cc(Nc4ccc(Cl)cc4F)nn23)ccc1C(=O)NC1CC1 [Example 376, 4-{6-[(4-chloro-2-fluorophenyl)amino]-8-[(3,3,3-trifluoropropyl)amino]imidazo[1,2-b]pyridazin-3-yl}-N-cyclopropyl-2-methylbenzamide]	0.2 nM
O=C(NC1CC1)c1ccc(-c2cnc3c(NCc4cccs4)cc(Cl)nn23)cc1Cl [Example 187, 2-Chloro-4-{6-chloro-8-[(thiophen-2-ylmethyl)amino]imidazo[1,2-b]pyridazin-3-yl}-N-cyclopropyl-benzamide]	49.8 nM
CCNC(=O)c1ccc(-c2cnc3c(NCCN4CCOCC4)cc(Oc4ccc(F)c(F)c4)nn23)cc1C [Example 588, 4-[6-(3,4-difluorophenoxy)-8-{[2-(morpholin-4-yl)ethyl]amino}imidazo[1,2-b]pyridazin-3-yl]-N-ethyl-2-methylbenzamide]	2.2 nM
CNC(=O)c1ccc(-c2cnc3c(NCCC(F)(F)F)cc(Oc4cccc(F)c4)nn23)cc1C [Example 575, 4-{6-(3-fluorophenoxy)-8-[(3,3,3-trifluoropropyl)a-mino]imidazo[1,2-b]pyridazin-3-yl}-N,2-dimethylbenzamide]	< 1 nM
Cc1cc(-c2cnc3c(NCC(C)(C)O)cc(C4=CCOCC4)nn23)ccc1C(=O)NC1CC1 [Example 166, N-cyclopropyl-4-{6-(3,6-dihydro-2H-pyran-4-yl)-8-[(2-hydroxy-2-methylpropyl)amino]imidazo[1,2-b]pyridazin-3-yl}-2-methylbenzamide]	5.3 nM
CNC(=O)c1ccc(-c2cc(NCC(C)C)c3ncc(-c4ccc(C(=O)NC5CC5)cc4)n3n2)cn1 [Example 149, 5-{3-[4-(Cyclopropylcarbamoyl)phenyl]-8-[(2-methylpropyl)amino]imidazo[1,2-b]pyridazin-6-yl}-N-methylpyridine-2-carboxamide]	2.2 nM
Cc1cc(-c2cnc3c(NCC(C)(C)O)cc(-c4ccnn4C)nn23)ccc1C(=O)NC1CC1 [Example 21, N-cyclopropyl-4-{8-[(2-hydroxy-2-methylpropyl)amino]-6-(1-methyl-1H-pyrazol-5-yl)imidazo[1,2-b]pyridazin-3-yl}-2-methylbenzamide]	3.7 nM
Cc1cc(-c2cnc3c(NCC4CC[S+]([O-])CC4)cc(Oc4ccc(Cl)cc4)nn23)ccc1C(=O)NC1CC1 (mixture of isomers) [Example 294B, 4-[6-(4-chlorophenoxy)-8-({[(cis/trans)-1-oxidotetrahydro-2H-thiopyran-4-yl]methyl}amino)imidazo[1,2-b]pyridazin-3-yl]-N-cyclopropyl-2-methylbenzamide]	0.2 nM
